Measurements published in patent US7009045B2 (priority 2000, dated 2006).
Where “and” joins values, the source holds several entries; their conditions need not be identical. Equal values may be shown once.

Experiments:
C. famata = format: cell-based, Candida famata
[1] = system: Candida famata regulatory mutants able to overproduce riboflavin; experiment: Sensitivity to Co^+2 ions, solid Burkholder medium (Table 16); format: cell-based; parameters: key: +++: strong growth; ++: weak growth; —: absence of growth
Description: (§1) The sensitivity of the regulatory mutants of the yeast C. famata which overproduce riboflavin in iron rich medium probably due to defects in genes regulating repression (repression mutants), to different ions of heavy metals was studied. For this, the analyzed strains were streaked on the YPD plates and then were replica-plated on Burkholder synthetic medium containing leucine (40 μg/ml). The C.famata mutants L20105-40-1-11, L20105-40-1-17, L20105-3-2-1, L20105-3-2-8 and L20105-3-2-12 (all contained leu2 marker) accumulated 80–100 μg riboflavin/ml. The mutants #75, 4-48, 2-5 produced much higher amounts of riboflavin (200–250 μg/ml) but were prototrophs for leucine synthesis. Strain #75 was characterized by retarded growth comparing with other mutants. The strains VKM Y-9 (wild type) and L20105 (leu2) were used as the control strains.

[2] = system: Candida famata regulatory mutants able to overproduce riboflavin; experiment: Sensitivity to copper ions, solid Burkholder medium (Table 12); format: cell-based
Description: as §1
Mutants overproducing lower amounts of riboflavin appeared to be more sensitive to CuSO4 (0.15 mM) than that of the strains producing higher amounts of riboflavin (inhibitory concentration 0.5 mM) (Table 12).

[3] = system: Candida famata regulatory mutants able to overproduce riboflavin; experiment: Sensitivity to K2Cr2O7, solid Burkholder medium with 0.5% glycerol (Table 14); format: cell-based
Description: as §1

[4] = system: Candida famata regulatory mutants able to overproduce riboflavin; experiment: as above; format: cell-based; parameters: key: +++: strong growth; ++: weak growth; +: very weak growth; —: absence of growth
Description: as §1

[Cl-].[Cl-].[Co+2] [CoCl2]
50 µg/mL and 100 µg/mL: higher concentrations tested that inhibited plate growth (C. famata)
15 µg/mL: concentration non-toxic for yeast growth that stimulates riboflavin synthesis (C. famata)
+++: growth ([1]; #2-5, Co^+2 1.25 μg/ml) | growth ([1]; #4-48, Co^+2 1.25 μg/ml) | growth ([1]; L20105 (leu2), Co^+2 1.25 μg/ml) | growth ([1]; L20105 (leu2), Co^+2 2.5 μg/ml) | growth ([1]; L20105 (leu2), Co^+2 3.75 μg/ml) | growth ([1]; L20105 (leu2), Co^+2 5.0 μg/ml) | growth ([1]; L20105 (leu2), Co^+2 6.25 μg/ml) | growth ([1]; L20105 (leu2), Co^+2 7.5 μg/ml) | growth ([1]; L20105 (leu2), Co^+2 8.75 μg/ml) | growth ([1]; L20105 (leu2), Co^+2 10 μg/ml) | growth ([1]; L20105-3-2-1, Co^+2 1.25 μg/ml) | growth ([1]; L20105-3-2-8, Co^+2 1.25 μg/ml) | growth ([1]; L20105-3-2-9, Co^+2 1.25 μg/ml) | growth ([1]; L20105-3-2-12, Co^+2 1.25 μg/ml) | growth ([1]; L20105-40-1-11, Co^+2 1.25 μg/ml) | growth ([1]; VKM Y-9, Co^+2 1.25 μg/ml) | growth ([1]; VKM Y-9, Co^+2 2.5 μg/ml) | growth ([1]; VKM Y-9, Co^+2 3.75 μg/ml) | growth ([1]; VKM Y-9, Co^+2 5.0 μg/ml) | growth ([1]; VKM Y-9, Co^+2 6.25 μg/ml) | growth ([1]; VKM Y-9, Co^+2 7.5 μg/ml) | growth ([1]; VKM Y-9, Co^+2 8.75 μg/ml) | growth ([1]; VKM Y-9, Co^+2 10 μg/ml) | growth ([1]; VKM Y-9, Co^+2 11.25 μg/ml) | growth ([1]; VKM Y-9, Co^+2 12.5 μg/ml)
++: growth ([1]; #2-5, Co^+2 2.5 μg/ml) | growth ([1]; #4-48, Co^+2 2.5 μg/ml) | growth ([1]; #75, Co^+2 1.25 μg/ml) | growth ([1]; L20105 (leu2), Co^+2 11.25 μg/ml) | growth ([1]; L20105 (leu2), Co^+2 12.5 μg/ml) | growth ([1]; L20105-3-2-1, Co^+2 2.5 μg/ml) | growth ([1]; L20105-3-2-8, Co^+2 2.5 μg/ml) | growth ([1]; L20105-3-2-9, Co^+2 2.5 μg/ml) | growth ([1]; L20105-3-2-12, Co^+2 2.5 μg/ml) | growth ([1]; L20105-40-1-11, Co^+2 2.5 μg/ml)
25 µg/mL: maximal subinhibitory concentration which stimulates flavinogenesis (C. famata)
—: growth ([1]; #2-5, Co^+2 5.0 μg/ml) | growth ([1]; #2-5, Co^+2 6.25 μg/ml) | growth ([1]; #2-5, Co^+2 7.5 μg/ml) | growth ([1]; #2-5, Co^+2 8.75 μg/ml) | growth ([1]; #2-5, Co^+2 10 μg/ml) | growth ([1]; #2-5, Co^+2 11.25 μg/ml) | growth ([1]; #2-5, Co^+2 12.5 μg/ml) | growth ([1]; #4-48, Co^+2 3.75 μg/ml) | growth ([1]; #4-48, Co^+2 5.0 μg/ml) | growth ([1]; #4-48, Co^+2 6.25 μg/ml) | growth ([1]; #4-48, Co^+2 7.5 μg/ml) | growth ([1]; #4-48, Co^+2 8.75 μg/ml) | growth ([1]; #4-48, Co^+2 10 μg/ml) | growth ([1]; #4-48, Co^+2 11.25 μg/ml) | growth ([1]; #4-48, Co^+2 12.5 μg/ml) | growth ([1]; #75, Co^+2 3.75 μg/ml) | growth ([1]; #75, Co^+2 5.0 μg/ml) | growth ([1]; #75, Co^+2 6.25 μg/ml) | growth ([1]; #75, Co^+2 7.5 μg/ml) | growth ([1]; #75, Co^+2 8.75 μg/ml) | growth ([1]; #75, Co^+2 10 μg/ml) | growth ([1]; #75, Co^+2 11.25 μg/ml) | growth ([1]; #75, Co^+2 12.5 μg/ml) | growth ([1]; L20105-3-2-1, Co^+2 5.0 μg/ml) | growth ([1]; L20105-3-2-1, Co^+2 6.25 μg/ml) | growth ([1]; L20105-3-2-1, Co^+2 7.5 μg/ml) | growth ([1]; L20105-3-2-1, Co^+2 8.75 μg/ml) | growth ([1]; L20105-3-2-1, Co^+2 10 μg/ml) | growth ([1]; L20105-3-2-1, Co^+2 11.25 μg/ml) | growth ([1]; L20105-3-2-1, Co^+2 12.5 μg/ml) | growth ([1]; L20105-3-2-8, Co^+2 6.25 μg/ml) | growth ([1]; L20105-3-2-8, Co^+2 7.5 μg/ml) | growth ([1]; L20105-3-2-8, Co^+2 8.75 μg/ml) | growth ([1]; L20105-3-2-8, Co^+2 10 μg/ml) | growth ([1]; L20105-3-2-8, Co^+2 11.25 μg/ml) | growth ([1]; L20105-3-2-8, Co^+2 12.5 μg/ml) | growth ([1]; L20105-3-2-9, Co^+2 5.0 μg/ml) | growth ([1]; L20105-3-2-9, Co^+2 6.25 μg/ml) | growth ([1]; L20105-3-2-9, Co^+2 7.5 μg/ml) | growth ([1]; L20105-3-2-9, Co^+2 8.75 μg/ml) | growth ([1]; L20105-3-2-9, Co^+2 10 μg/ml) | growth ([1]; L20105-3-2-9, Co^+2 11.25 μg/ml) | growth ([1]; L20105-3-2-9, Co^+2 12.5 μg/ml) | growth ([1]; L20105-3-2-12, Co^+2 6.25 μg/ml) | growth ([1]; L20105-3-2-12, Co^+2 7.5 μg/ml) | growth ([1]; L20105-3-2-12, Co^+2 8.75 μg/ml) | growth ([1]; L20105-3-2-12, Co^+2 10 μg/ml) | growth ([1]; L20105-3-2-12, Co^+2 11.25 μg/ml) | growth ([1]; L20105-3-2-12, Co^+2 12.5 μg/ml) | growth ([1]; L20105-40-1-11, Co^+2 5.0 μg/ml) | growth ([1]; L20105-40-1-11, Co^+2 6.25 μg/ml) | growth ([1]; L20105-40-1-11, Co^+2 7.5 μg/ml) | growth ([1]; L20105-40-1-11, Co^+2 8.75 μg/ml) | growth ([1]; L20105-40-1-11, Co^+2 10 μg/ml) | growth ([1]; L20105-40-1-11, Co^+2 11.25 μg/ml) | growth ([1]; L20105-40-1-11, Co^+2 12.5 μg/ml)

O=S(=O)([O-])[O-].[Cu+2] [CuSO4]
0.5 mM: inhibitory concentration, strains producing higher amounts of riboflavin [2]
0.15 mM: inhibitory concentration, mutants overproducing lower amounts of riboflavin [2]

[K+].[K+].[O]=[Cr](=[O])([O-])[O][Cr](=[O])(=[O])[O-] [K2Cr2O7]
50 µM: concentration inhibiting growth of weaker overproducers [3]
+: growth ([4]; #2-5, K2Cr2O7 65 μM) | growth ([4]; #2-5, K2Cr2O7 75 μM) | growth ([4]; L20105-3-2-4, K2Cr2O7 30 μM) | growth ([4]; L20105-3-2-4, K2Cr2O7 40 μM) | growth ([4]; L20105-3-2-8, K2Cr2O7 30 μM) | growth ([4]; L20105-3-2-8, K2Cr2O7 40 μM) | growth ([4]; L20105-3-2-12, K2Cr2O7 30 μM) | growth ([4]; L20105-3-2-12, K2Cr2O7 40 μM)
